Laboratory results published in article PMC6199744, “Development of Chemical Proteomics for the Folateome and Analysis of the Kinetoplastid Folateome” (ACS Infectious Diseases, 2018).
Where two headings read alike, the source gives them in different places.

Legend:
Type in all cases: binding
[1] = molecular target: T1, HeLa cell extract proteins (Homo sapiens, UniProt P26640)
T1 construct: endogenous in cells; host or cells: HeLa cell extract
T1 sequence (P26640 1-1264): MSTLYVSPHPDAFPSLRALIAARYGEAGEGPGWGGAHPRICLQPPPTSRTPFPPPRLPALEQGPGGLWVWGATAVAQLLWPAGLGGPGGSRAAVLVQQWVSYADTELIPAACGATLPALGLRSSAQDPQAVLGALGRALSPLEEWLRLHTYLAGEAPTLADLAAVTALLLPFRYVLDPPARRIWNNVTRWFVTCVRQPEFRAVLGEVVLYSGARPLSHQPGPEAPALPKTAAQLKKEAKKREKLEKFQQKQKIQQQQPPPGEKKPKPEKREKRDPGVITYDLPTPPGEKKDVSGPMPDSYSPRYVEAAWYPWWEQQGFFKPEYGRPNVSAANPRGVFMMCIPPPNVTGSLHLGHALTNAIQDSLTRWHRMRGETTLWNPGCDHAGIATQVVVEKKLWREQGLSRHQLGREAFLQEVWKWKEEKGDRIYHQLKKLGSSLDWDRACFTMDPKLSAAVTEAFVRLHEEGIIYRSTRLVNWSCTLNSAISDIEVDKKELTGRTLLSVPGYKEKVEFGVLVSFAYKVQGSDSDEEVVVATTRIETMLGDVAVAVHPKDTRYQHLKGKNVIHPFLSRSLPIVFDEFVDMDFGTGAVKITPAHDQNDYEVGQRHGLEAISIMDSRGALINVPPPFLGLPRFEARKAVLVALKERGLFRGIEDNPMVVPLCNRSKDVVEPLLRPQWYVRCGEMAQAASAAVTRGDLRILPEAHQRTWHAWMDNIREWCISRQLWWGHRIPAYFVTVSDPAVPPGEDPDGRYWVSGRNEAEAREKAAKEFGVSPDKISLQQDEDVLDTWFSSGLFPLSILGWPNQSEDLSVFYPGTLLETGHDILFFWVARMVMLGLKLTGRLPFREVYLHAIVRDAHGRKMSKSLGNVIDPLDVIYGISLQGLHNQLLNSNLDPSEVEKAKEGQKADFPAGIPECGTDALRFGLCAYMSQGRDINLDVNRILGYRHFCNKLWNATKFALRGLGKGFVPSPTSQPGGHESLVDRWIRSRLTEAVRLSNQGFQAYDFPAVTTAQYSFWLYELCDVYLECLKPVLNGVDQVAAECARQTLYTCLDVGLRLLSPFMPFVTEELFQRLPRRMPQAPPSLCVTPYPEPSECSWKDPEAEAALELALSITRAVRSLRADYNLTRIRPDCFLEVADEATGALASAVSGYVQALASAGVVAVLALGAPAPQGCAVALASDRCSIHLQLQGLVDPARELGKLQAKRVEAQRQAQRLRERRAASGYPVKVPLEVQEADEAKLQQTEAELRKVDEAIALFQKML

[2] = molecular target: T2, HeLa cell extract proteins (Homo sapiens, UniProt P52294)
T2 construct: endogenous in cells; host or cells: HeLa cell extract
T2 sequence (P52294 whole entry): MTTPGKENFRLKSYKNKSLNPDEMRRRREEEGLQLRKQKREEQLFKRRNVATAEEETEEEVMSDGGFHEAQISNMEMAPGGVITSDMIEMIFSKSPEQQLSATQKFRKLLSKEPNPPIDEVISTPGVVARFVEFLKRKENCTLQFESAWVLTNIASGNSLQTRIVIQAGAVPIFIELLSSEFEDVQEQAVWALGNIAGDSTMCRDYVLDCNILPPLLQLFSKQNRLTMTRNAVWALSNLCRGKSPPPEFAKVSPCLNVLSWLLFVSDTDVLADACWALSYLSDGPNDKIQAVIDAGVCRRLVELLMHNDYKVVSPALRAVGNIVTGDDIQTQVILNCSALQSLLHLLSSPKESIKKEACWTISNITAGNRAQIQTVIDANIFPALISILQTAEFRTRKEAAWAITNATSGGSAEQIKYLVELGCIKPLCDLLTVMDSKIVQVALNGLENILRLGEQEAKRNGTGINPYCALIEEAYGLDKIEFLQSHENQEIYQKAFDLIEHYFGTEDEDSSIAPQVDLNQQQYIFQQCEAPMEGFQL

[3] = molecular target: T3, HeLa cell extract proteins (Homo sapiens, UniProt Q15370)
T3 construct: endogenous in cells; host or cells: HeLa cell extract
T3 sequence (Q15370 whole entry): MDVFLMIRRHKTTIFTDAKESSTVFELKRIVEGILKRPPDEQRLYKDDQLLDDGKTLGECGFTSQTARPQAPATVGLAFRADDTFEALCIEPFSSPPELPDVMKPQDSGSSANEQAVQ

[4] = molecular target: T4, HeLa cell extract proteins (Homo sapiens, UniProt Q93099)
T4 construct: endogenous in cells; host or cells: HeLa cell extract
T4 sequence (Q93099 1-445): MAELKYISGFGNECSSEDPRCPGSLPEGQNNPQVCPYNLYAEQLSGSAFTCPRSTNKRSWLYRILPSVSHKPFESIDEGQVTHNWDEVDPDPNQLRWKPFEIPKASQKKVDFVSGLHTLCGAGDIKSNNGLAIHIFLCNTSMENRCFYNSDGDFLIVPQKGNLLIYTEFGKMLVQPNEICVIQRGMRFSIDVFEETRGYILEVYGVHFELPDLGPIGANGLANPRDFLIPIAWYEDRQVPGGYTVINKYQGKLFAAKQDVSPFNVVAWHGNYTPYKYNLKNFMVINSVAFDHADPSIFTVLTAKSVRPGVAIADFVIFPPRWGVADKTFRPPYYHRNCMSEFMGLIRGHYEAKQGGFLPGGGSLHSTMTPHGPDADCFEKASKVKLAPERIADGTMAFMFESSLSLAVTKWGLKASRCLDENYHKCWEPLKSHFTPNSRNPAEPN

[5] = molecular target: T5, HeLa cell extract proteins (Homo sapiens, UniProt Q9UPT8)
T5 construct: endogenous in cells; host or cells: HeLa cell extract
T5 sequence (Q9UPT8 whole entry): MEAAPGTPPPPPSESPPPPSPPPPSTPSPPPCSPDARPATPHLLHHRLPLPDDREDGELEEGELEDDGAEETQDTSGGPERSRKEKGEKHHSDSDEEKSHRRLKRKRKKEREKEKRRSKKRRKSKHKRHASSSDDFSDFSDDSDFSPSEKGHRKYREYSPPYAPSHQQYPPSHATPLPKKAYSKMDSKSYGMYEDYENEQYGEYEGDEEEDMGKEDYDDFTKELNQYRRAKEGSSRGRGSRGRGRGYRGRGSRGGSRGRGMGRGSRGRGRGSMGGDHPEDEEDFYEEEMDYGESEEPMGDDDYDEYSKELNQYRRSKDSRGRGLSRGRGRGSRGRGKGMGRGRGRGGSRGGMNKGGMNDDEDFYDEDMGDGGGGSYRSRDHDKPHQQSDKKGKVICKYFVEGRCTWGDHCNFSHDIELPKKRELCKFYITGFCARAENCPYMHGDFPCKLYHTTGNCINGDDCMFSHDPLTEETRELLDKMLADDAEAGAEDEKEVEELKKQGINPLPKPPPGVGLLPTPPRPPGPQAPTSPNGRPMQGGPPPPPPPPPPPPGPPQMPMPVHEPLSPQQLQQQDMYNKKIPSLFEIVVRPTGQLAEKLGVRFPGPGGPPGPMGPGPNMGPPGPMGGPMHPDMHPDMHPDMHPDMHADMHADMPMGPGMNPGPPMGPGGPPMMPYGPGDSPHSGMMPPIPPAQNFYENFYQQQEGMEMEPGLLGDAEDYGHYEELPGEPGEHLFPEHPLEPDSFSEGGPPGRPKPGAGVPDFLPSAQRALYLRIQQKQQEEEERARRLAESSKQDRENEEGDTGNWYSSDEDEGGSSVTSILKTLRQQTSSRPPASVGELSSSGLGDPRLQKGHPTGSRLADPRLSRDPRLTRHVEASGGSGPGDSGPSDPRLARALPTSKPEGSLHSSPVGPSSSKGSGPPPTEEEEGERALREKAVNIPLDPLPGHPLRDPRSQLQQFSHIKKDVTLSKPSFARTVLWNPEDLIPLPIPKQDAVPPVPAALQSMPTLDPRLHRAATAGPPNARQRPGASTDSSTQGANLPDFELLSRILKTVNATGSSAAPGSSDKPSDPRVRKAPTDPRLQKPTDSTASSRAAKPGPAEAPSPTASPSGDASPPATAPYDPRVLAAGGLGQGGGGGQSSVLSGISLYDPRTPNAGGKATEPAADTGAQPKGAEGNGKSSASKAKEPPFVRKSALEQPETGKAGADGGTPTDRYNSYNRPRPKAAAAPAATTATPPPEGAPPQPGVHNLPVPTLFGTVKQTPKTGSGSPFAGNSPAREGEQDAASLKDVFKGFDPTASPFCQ

[6] = molecular target: T6, HeLa cell extract proteins (Homo sapiens, UniProt P09429); conditions: HeLa; protein HMGB1 (HIGH MOBILITY GROUP PROTEIN B1.)
T6 construct: endogenous in cells; host or cells: HeLa cell extract
T6 sequence (P09429 1-215): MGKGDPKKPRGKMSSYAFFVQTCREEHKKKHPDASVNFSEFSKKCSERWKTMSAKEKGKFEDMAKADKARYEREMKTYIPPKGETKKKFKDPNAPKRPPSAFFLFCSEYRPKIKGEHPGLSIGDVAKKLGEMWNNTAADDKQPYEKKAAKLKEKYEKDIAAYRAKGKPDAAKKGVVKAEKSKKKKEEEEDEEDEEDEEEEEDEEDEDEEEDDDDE

[7] = molecular target: T7, HeLa cell extract proteins (Homo sapiens, UniProt P21266); conditions: protein GSTM3; HeLa
T7 construct: endogenous in cells; host or cells: HeLa cell extract
T7 sequence (P21266 1-225): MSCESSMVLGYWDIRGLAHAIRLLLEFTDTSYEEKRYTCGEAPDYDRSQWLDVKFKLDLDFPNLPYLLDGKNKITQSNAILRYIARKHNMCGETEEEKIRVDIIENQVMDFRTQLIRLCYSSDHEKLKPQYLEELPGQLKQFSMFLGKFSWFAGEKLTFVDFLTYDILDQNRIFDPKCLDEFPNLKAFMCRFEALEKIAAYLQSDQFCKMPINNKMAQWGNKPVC

[8] = molecular target: T8, HeLa cell extract proteins (Homo sapiens, UniProt P22061); conditions: protein PCMT1; HeLa
T8 construct: endogenous in cells; host or cells: HeLa cell extract
T8 sequence (P22061 whole entry): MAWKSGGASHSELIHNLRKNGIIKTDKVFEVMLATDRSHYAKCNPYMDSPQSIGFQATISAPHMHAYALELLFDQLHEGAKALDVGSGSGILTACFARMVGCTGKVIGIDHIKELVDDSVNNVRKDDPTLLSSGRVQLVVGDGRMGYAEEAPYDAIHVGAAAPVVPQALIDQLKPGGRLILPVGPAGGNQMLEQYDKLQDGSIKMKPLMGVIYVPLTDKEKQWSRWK

[9] = molecular target: T9, HeLa cell extract proteins (Homo sapiens, UniProt P82933); conditions: protein MRPS9; HeLa
T9 construct: endogenous in cells; host or cells: HeLa cell extract

| Structure (SMILES) | fold changes relative to vehicle control ([1]; protein VARS, HeLa) | fold changes relative to vehicle control ([2]; HeLa, protein KPNA1) | fold changes relative to vehicle control ([3]; protein TCEB2, HeLa) | fold changes relative to vehicle control ([4]; HeLa, protein HGD) | fold changes relative to vehicle control ([5]; HeLa, protein ZC3H4) | fold changes relative to vehicle control [6] [fold] | fold changes relative to vehicle control [7] | fold changes relative to vehicle control [8] | fold changes relative to vehicle control [9] | also measured |
| --- | --- | --- | --- | --- | --- | --- | --- | --- | --- | --- |
| Nc1nc2c(c(=O)[nH]1)N(C=O)C(CNc1ccc(C(=O)N[C@@H](CCC(=O)O)C(=O)O)cc1)CN2 (some centres unmarked) [LEU, leucovorin] | 0.86 | 0.9 | 0.9 | 0.87 | 0.99 |  |  |  |  |  |
| Nc1nc2[nH]cc(CCc3ccc(C(=O)N[C@@H](CCC(=O)O)C(=O)O)cc3)c2c(=O)[nH]1 [PTX, pemetrexed] |  |  |  |  |  |  |  |  |  | fold changes relative to vehicle control [1]: 0.84; fold changes relative to vehicle control [2]: 0.87; fold changes relative to vehicle control [3]: 1.02; fold changes relative to vehicle control [4]: 1.01; fold changes relative to vehicle control [5]: 1.06 |
| CCCCCCOc1ccc(Cc2cnc(N)nc2N)cc1 [compound 1] |  |  |  |  |  | 1.53 | 1.22 | 0.92 | 1.24 |  |
| CCCCCCOc1cccc(Cc2cnc(N)nc2N)c1 [compound 2] |  |  |  |  |  | 3.16 | 1.72 | 1.28 | 1.3 |  |
| Nc1nc2cccc(-c3ccccc3)c2n1Cc1ccc(Cl)c(Cl)c1 [compound 3] |  |  |  |  |  | 0.85 | 0.93 | 0.88 | 0.92 |  |
| NCCOCCOCC(=O)Nc1nc2ncc(CNc3ccc(C(=O)NC(CCC(=O)O)C(=O)O)cc3)nc2c(=O)[nH]1 (centres unmarked) [compound 6] | 1 | 0.98 | 1.43 | 1.01 | 1.1 |  |  |  |  |  |
| NCCCNc1ccc(C(=O)NC(CCC(=O)O)C(=O)O)cc1 (centres unmarked) [compound 7] | 0.91 | 0.93 | 1.1 | 0.8 | 1.01 |  |  |  |  |  |
